# Earlier results as cited in patent US10154980B2, “Anti-inflammatory omega-3 synergistic combinations” (LYCORED LTD., priority 2013, dated 2018).
# Test system: NO production
# Settings: background, literature references
row,Structure (SMILES),inhibit NO production
1,"CC1=C[C@H](O)CC(C)(C)[C@H]1/C=C/C(C)=C/C=C/C(C)=C/C=C/C=C(C)/C=C/C=C(C)/C=C/C1=C(C)C[C@@H](O)CC1(C)C [lutein, (3R,3′R, 6′R)-beta,epsilon-carotene-3,3′-diol]",shown to inhibit NO production
2,CC(C)=CCC/C(C)=C/C=C/C(C)=C/C=C/C(C)=C/C=C/C=C(C)/C=C/C=C(C)/C=C/C=C(\C)CCC=C(C)C [lycopene],shown to inhibit NO production
